# Literature values as cited in patent US20100215763A1, “Method of using the body's alternative cellular energy pigments (ACE-pigments) in the therapy of diseases” (priority 2009, published 2010).
# System: HSV and HZV skin lesions
structure (smiles),measurement,setting,value
Cc1cc2nc3ccc(N(C)C)cc3nc2cc1N.Cl [neutral red],healing of treated HSV and HZV skin lesions,neutral red applied to active lesions followed by UV illumination,expedited healing
same,healing of distant HSV lesions,"patients with lesions at more than one location, neutral red and UV limited to a single lesion",expedited healing in all lesions
